Patent US12660819B2, “Herbicidal derivatives” (SYNGENTA CROP PROTECTION AG, priority 2020, dated 2026)

Key:
Type in all cases: in vivo
[1] = test system: Amaranthus retoflexus (AMARE); test: Pre-emergence Test (glasshouse, percentage damage to the plant); conditions: 1000 g/ha unless otherwise stated, five-point scale
[2] = test system: Echinochloa crus-galli (ECHCG); test: Post-emergence Test (glasshouse, percentage damage to the plant); conditions: post-emergence spray, 1000 g/ha unless otherwise stated, evaluated after 13 days
Method in brief: (§1)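 Seeds sown in pots in glasshouse (24/16 °C day/night, 14 h light, 65% humidity), then sprayed with compound at 1000 g/ha unless stated, from acetone/water 50:50 with 0.5% Tween 20. Damage assessed 13 days later on five-point scale (1=0–20% to 5=81–100%).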

[3] = test system: Zea mays (ZEAMX); test: as above; conditions: post-emergence spray, 1000 g/ha unless otherwise stated, evaluated after 13 days
Method in brief: (§2)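 Seeds sown in standard soil in a glasshouse (24/16 °C day/night, 14 h light, 65% humidity), then sprayed with an aqueous solution of the compound formulated in acetone/water 50:50 with 0.5% Tween 20 at 1000 g/ha unless otherwise stated. Percentage damage was scored after 13 days on a five-point scale (5=81-100%; 1=0-20%).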

[4] = test system: Abutilon theophrasti (ABUTH); test: as above; conditions: post-emergence spray, 1000 g/ha unless otherwise stated, evaluated after 13 days
Method in brief: as §1

[5] = test system: Ipomoea hederacea (IPOHE); test: as above; conditions: post-emergence spray, 1000 g/ha unless otherwise stated, evaluated after 13 days
Method in brief: as §2

[6] = test system: Setaria faberi (SETFA); test: as above; conditions: post-emergence spray, 1000 g/ha unless otherwise stated, evaluated after 13 days
Method in brief: as §2

[7] = test system: Amaranthus retoflexus (AMARE); test: as above; conditions: post-emergence spray, 1000 g/ha unless otherwise stated, evaluated after 13 days
Method in brief: as §1

[8] = test system: Setaria faberi (SETFA); test: Pre-emergence Test (glasshouse, percentage damage to the plant); conditions: 1000 g/ha unless otherwise stated, five-point scale
[9] = test system: Echinochloa crus-galli (ECHCG); test: as above; conditions: 1000 g/ha unless otherwise stated, five-point scale
[10] = test system: Abutilon theophrasti (ABUTH); test: as above; conditions: 1000 g/ha unless otherwise stated, five-point scale
[11] = test system: Ipomoea hederacea (IPOHE); test: as above; conditions: 1000 g/ha unless otherwise stated, five-point scale
[12] = test system: Zea mays (ZEAMX); test: as above; conditions: 1000 g/ha unless otherwise stated, five-point scale

| Structure (SMILES) | percentage damage to the plant, AMARE [1] | Post-emergence Test ECHCG, percentage damage to the plant (five-point scale) [2] | Post-emergence Test ZEAMX, percentage damage to the plant (five-point scale) [3] | Post-emergence Test ABUTH, percentage damage to the plant (five-point scale) [4] | Post-emergence Test IPOHE, percentage damage to the plant (five-point scale) [5] | Post-emergence Test SETFA, percentage damage to the plant (five-point scale) [6] | Post-emergence Test AMARE, percentage damage to the plant (five-point scale) [7] | percentage damage to the plant, SETFA [8] | percentage damage to the plant, ECHCG [9] | percentage damage to the plant, ABUTH [10] | percentage damage to the plant, IPOHE [11] | percentage damage to the plant, ZEAMX [12] |
| --- | --- | --- | --- | --- | --- | --- | --- | --- | --- | --- | --- | --- |
| CCn1c(C)c(-c2ccc(OC(F)(F)F)cc2)c(=O)c(C(=O)O)c1-c1ccc(F)cc1F [Compound 136, 2-(2,4-difluorophenyl)-1-ethyl-6-methyl-4-oxo-5-[4-(trifluoromethoxy)phenyl]pyridine-3-carboxylic acid] | 2 (2=21-40%) | 3 (3=41-60%) | 1 (1=0-20%) | 3 (3=41-60%) | 2 (2=21-40%) | 4 (4=61-80%) | 3 (3=41-60%) | 5 (5=81-100%) | 3 (3=41-60%) | 3 (3=41-60%) | 2 (2=21-40%) | 1 (1=0-20%) |
| CCOC(=O)c1c(-c2ccc(Br)cc2F)n(CC)c(C)c(-c2ccc(Cl)cc2)c1=O [Compound 137, ethyl 2-(4-bromo-2-fluoro-phenyl)-5-(4-chlorophenyl)-1-ethyl-6-methyl-4-oxo-pyridine-3-carboxylate] | 5 (5=81-100%) | 4 (4=61-80%) | 2 (2=21-40%) | 3 (3=41-60%) | 3 (3=41-60%) | 3 (3=41-60%) | 3 (3=41-60%) | 1 (1=0-20%) | 0 | 0 | 0 | 0 |
| CCn1c(C)c(-c2ccc(Cl)cc2)c(=O)c(C(=O)O)c1-c1ccc(Cl)cc1 [Compound 138, 2,5-bis(4-chlorophenyl)-1-ethyl-6-methyl-4-oxo-pyridine-3-carboxylic acid] | 5 (5=81-100%) | 2 (2=21-40%) | 0 | 3 (3=41-60%) | 1 (1=0-20%) | 3 (3=41-60%) | 1 (1=0-20%) | 5 (5=81-100%) | 3 (3=41-60%) | 3 (3=41-60%) | 1 (1=0-20%) | 1 (1=0-20%) |
| CCOC(=O)c1c(-c2ccc(Br)c(F)c2)n(CC)c(C)c(-c2ccc(Cl)cc2)c1=O [Compound 139, ethyl 2-(4-bromo-3-fluoro-phenyl)-5-(4-chlorophenyl)-1-ethyl-6-methyl-4-oxo-pyridine-3-carboxylate] | 0 | 2 (2=21-40%) | 2 (2=21-40%) | 4 (4=61-80%) | 1 (1=0-20%) | 3 (3=41-60%) | 3 (3=41-60%) | 0 | 0 | 0 | 0 | 0 |
| CCn1c(C)c(-c2cccc(C#N)c2)c(=O)c(C(=O)O)c1-c1ccnc(Cl)c1 [Compound 141, 2-(2-chloro-4-pyridyl)-5-(3-cyanophenyl)-1-ethyl-6-methyl-4-oxo-pyridine-3-carboxylic acid] | 0 | 0 | 0 | 0 | 0 | 0 | 0 | 0 | 0 | 0 | 0 | 0 |
| CCn1c(C)c(-c2ccc(C#N)cc2)c(=O)c(C(=O)O)c1-c1ccnc(Cl)c1 [Compound 142, 2-(2-chloro-4-pyridyl)-5-(4-cyanophenyl)-1-ethyl-6-methyl-4-oxo-pyridine-3-carboxylic acid] | 0 | 3 (3=41-60%) | 1 (1=0-20%) | 1 (1=0-20%) | 2 (2=21-40%) | 2 (2=21-40%) | 0 | 1 (1=0-20%) | 1 (1=0-20%) | 0 | 0 | 0 |
| CCn1c(C)c(-c2ccc(Cl)cc2)c(=O)c(C(=O)O)c1-c1ccnc(Cl)c1 [Compound 143, 5-(4-chlorophenyl)-2-(2-chloro-4-pyridyl)-1-ethyl-6-methyl-4-oxo-pyridine-3-carboxylic acid] | 1 (1=0-20%) | 4 (4=61-80%) | 4 (4=61-80%) | 4 (4=61-80%) | 4 (4=61-80%) | 4 (4=61-80%) | 2 (2=21-40%) | 5 (5=81-100%) | 5 (5=81-100%) | 3 (3=41-60%) | 1 (1=0-20%) | 3 (3=41-60%) |
| CCn1c(C)c(-c2cccc(Cl)c2)c(=O)c(C(=O)O)c1-c1ccnc(Cl)c1 [Compound 144, 5-(3-chlorophenyl)-2-(2-chloro-4-pyridyl)-1-ethyl-6-methyl-4-oxo-pyridine-3-carboxylic acid] | 1 (1=0-20%) | 2 (2=21-40%) | 2 (2=21-40%) | 2 (2=21-40%) | 2 (2=21-40%) | 3 (3=41-60%) | 2 (2=21-40%) | 4 (4=61-80%) | 4 (4=61-80%) | 1 (1=0-20%) | 2 (2=21-40%) | 2 (2=21-40%) |
